From ChEMBL document CHEMBL5729595, “MASP-2 inhibitors and methods of use” (2023)

Test: Enzymatic Assay for MASP-2: The assay was run at room temperature in an assay buffer containing 20 mM Hepes, pH 7.4, 140 mM NaCl and 0.1% Tween 20. Assay parameters were adjusted such that the assay was linear with respect to time, enzyme and substrate concentrations. Under these optimized assays conditions, IC50 values were equivalent to Ki values, except in a few cases of “tight binding” inhibitors. Cases of “tight binding” or possible “slow binding” inhibitors were handled by the methods described in Copeland R. A. (2013) Evaluation of Enzyme Inhibitors in Drug Discovery. 2nd Ed., John Wiley and Sons, Inc., Chapters 5-7.

`C[C@H](NC(=O)[C@H]1C[C@H](c2ccccc2)CCN1)C(=O)NCc1ccc(C(=N)N)cc1` showed a Ki of less than 500 nM.
